{"source": "paper PMC8230863", "about": "(The Journal of Venomous Animals and Toxins Including …, 2021)", "assay_type_in_all_cases": "cell-based", "key": {"[1]": {"test_system": "sodium channel currents in rat DRG neurons", "details": "10 μM; n = 3"}, "human Cav2.2": {"test_system": "human Cav2.2", "details": "10 μM; SD"}, "[2]": {"test_system": "potassium channel currents in rat DRG neurons", "details": "10 μM"}, "[3]": {"test_system": "calcium channel currents in rat DRG neurons"}}, "note": "Bridge positions count the residues as written; N and C are the ends. Peptide text beside a SMILES is read from it.", "data": [{"smiles": "CSCC[C@@H]1NC(=O)[C@H](CCC(N)=O)NC(=O)[C@@H]2CSSC[C@@H](C(=O)N3CCC[C@H]3C(N)=O)NC(=O)[C@@H]3CSSC[C@H](NC(=O)[C@@H](NC(=O)CNC(=O)[C@@H](N)CCC(N)=O)CSSC[C@H](NC(=O)[C@H](C)NC(=O)[C@H](C)NC1=O)C(=O)N[C@@H](CC(N)=O)C(=O)N1CCC[C@H]1C(=O)N1CCC[C@H]1C(=O)N1CCC[C@H]1C(=O)N3)C(=O)N1CCC[C@H]1C(=O)N1CCC[C@H]1C(=O)NCC(=O)N[C@@H](C(C)C)C(=O)N2", "note": "[Vr3a] (H-QGCCPPGVCQMAACNPPPCCP-NH2; disulfide 3-14, 4-19, 9-20)", "values": [{"measurement": "effect on the peak of the sodium currents", "setting": "[1]", "value": "no effects"}, {"measurement": "shift in the activation curve of sodium channels (change of V50)", "setting": "[1]", "value": "~ 10 mV"}, {"measurement": "shift in the current-voltage relationship of sodium channels", "setting": "[1]", "value": "~ 10 mV"}, {"measurement": "shift in the inactivation curve of sodium channels (change of V50)", "setting": "[1]", "value": "~ 5 mV"}, {"measurement": "shift in the recovery curve, delaying sodium channel recovery", "setting": "[1]", "value": "~ 0.002 second"}, {"measurement": "inhibition of human Cav2.2 currents", "setting": "human Cav2.2", "value": "12.86% ± 4.93%"}, {"measurement": "increase of the peak potassium currents", "setting": "[2]; SD", "value": "19.61 ± 5.12", "unit": "%"}, {"measurement": "shift in the current-voltage relationship of potassium channels", "setting": "[2]; n = 3", "value": "do not induce a shift"}, {"measurement": "inhibition of the peak calcium currents", "setting": "[3]; 10 μM, SD", "value": "31.26% ± 4.53%"}, {"measurement": "shift in the current-voltage relationship of calcium channels", "setting": "[3]; 10 μM, n = 3", "value": "do not induce a shift"}, {"measurement": "IC50", "setting": "[3]; SD", "value": "19.3 ± 4.32", "unit": "µM"}]}]}
